Patent US9833423B2 (KOREA RESEARCH INSTITUTE OF CHEMICAL TECHNOLOGY, priority 2011, dated 2017)
≈ marks a conversion by molar mass, not a printed value. Read-outs that look alike come from different tables or passages of the source.

How the values were obtained:
in vitro = conditions: human
Coxsackie-virus B1 = experiment: Cytopathic effect (CPE) inhibition assay; assay type: cell-based, Coxsackievirus B1; conditions: Enterovirus B, HeLa37, 48 h, HeLa, 37° C., 2 days
[1] = Table 4, read-out: Coxsackie-virus B1 EC50
[2] = Table 3, read-out: EC50 Coxsackie-virus B1

Structure (SMILES) | CC50 (in vitro; Picorna-virus CC50) [µg/mL] | EC50 (Coxsackie-virus B1; [1]) [µg/mL] | CC50 (in vitro; CC50) [µg/mL] | melting point [°C] | EC50 (Coxsackie-virus B1; [2]) [µg/mL]
CCCCCCCC(=O)NC1(c2ccc(C(C)C)cc2OC(=O)CCCCCCC)C(=O)c2cccc(N)c2C1=O (centres unmarked) [Example 91, 2-(4-Amino-2-octanamido-1,3-dioxo-2,3-dihydro-1H-inden-2-yl)-5-isopropylphenyl octanoate] | 40 (≈ 71.1 µM) | 0.015 (≈ 0.0267 µM) |  |  | 
CC(=O)c1ccc(C2(O)C(=O)c3ccccc3C2=O)c(O)c1 [Example 20, 2-(4-Acetyl-2-hydroxy-phenyl)-2-hydroxy-indan-1,3-dione] |  |  | > 100 | 177 to 180 | 
CCOC(=O)NC1(c2ccc(C(C)C)cc2OC)C(=O)c2ccccc2C1=O [Example 64, Ethyl 2-(4-isopropyl-2-methoxyphenyl)-1,3-dioxo-2,3-dihydro-1H-inden-2-ylcarbamate] |  |  | 87.8 (≈ 230 µM) | 149 to 150 | 
COc1cc(C(C)C)ccc1C1(O)C(=O)c2ccc(N)c(NC(C)=O)c2C1=O (centres unmarked) [Example 45, N-(5-Amino-2-hydroxy-2-(4-isopropyl-2-methoxyphenyl)-1,3-dioxo-2,3-dihydro-1H-inden-4-yl)acetamide] |  |  | > 117 | 124 to 131 | 
CCc1ccc(OC(C)=O)c(C2(OC(C)=O)C(=O)c3ccccc3C2=O)c1 [Example 12, 2-(2-Acetoxy-1,3-dioxo-2,3-dihydro-1H-inden-2-yl)-4-ethylphenyl acetate] |  |  | 74.1 | 153 to 154 | 
CC(C)c1ccc(C2(O)C(=O)c3ccccc3C2=O)c(OCc2ccccc2)c1 [Example 24, 2-(2-Benzyloxy-4-isopropyl-phenyl)-2-hydroxy-indan-1,3-dione] |  |  | > 100 | 197 to 199 | 
CONC(=O)NC1(c2ccc(C(C)C)cc2OC)C(=O)c2ccccc2C1=O [Example 63, 1-(2-(4-Isopropyl-2-methoxyphenyl)-1,3-dioxo-2,3-dihydro-1H-inden-2-yl)-3-methoxy urea] |  |  | > 117 | 153 to 155 | 
COc1ccc(OC(C)=O)c(C2(OC(C)=O)C(=O)c3ccccc3C2=O)c1 [Example 7, 2-(2-Acetoxy-1,3-dioxo-2,3-dihydro-1H-inden-2-yl)-4-methoxyphenyl acetate] |  |  | > 100 | 184 to 186 | 
CCN(CC)C(=O)Oc1cc(C(C)C)ccc1C1(OC(=O)N(CC)CC)C(=O)c2ccccc2C1=O [Example 33, Diethyl-carbamic acid 2-(2-diethylcarbamoyloxy-1,3-dioxo-indan-2-yl)-5-isopropyl-phenyl ester] |  |  | > 100 | 103 to 105 | 
COc1cc(C(C)C)ccc1C1(NC(N)=O)C(=O)c2ccccc2C1=O [Example 61, 1-(2,3-Dihydro-2-(4-isopropyl-2-methoxyphenyl)-1,3-dioxo-1H-inden-2-yl)urea] |  |  | > 117 | 272 to 274 | 
CSc1ccc(C2(O)C(=O)c3ccccc3C2=O)cc1 [Example 58] |  |  | 47.8 (≈ 168 µM) | 153 to 155 | 
COc1cc(C(C)C)ccc1C1(N)C(=O)c2ccccc2C1=O [Example 53, 2-Amino-2-(4-isopropyl-2-methoxyphenyl)-2H-inden-1,3-dione] |  |  | 10.2 (≈ 33 µM) | 164 to 166 | 
CC(C)c1ccc(C2(OC(=O)C(C)(C)C)C(=O)c3ccccc3C2=O)c(OC(=O)C(C)(C)C)c1 [Example 29, 2-(1,3-Dioxo-2-(pivaloyloxy)-2,3-dihydro-1H-inden-2-yl)-5-isopropylphenyl pivalate] |  |  | > 100 | 121 to 124 | 
CC(=O)Oc1c(C2(OC(C)=O)C(=O)c3ccccc3C2=O)ccc(Cl)c1Cl [Example 4, 6-(2-Acetoxy-1,3-dioxo-2,3-dihydro-1H-inden-2-yl)-2,3-dichlorophenyl acetate] |  |  | 50.4 | 129 to 136 | 
CC(=O)Oc1cc(C(C)C)ccc1C1(OC(C)=O)C(=O)c2cccc([N+](=O)[O-])c2C1=O (centres unmarked) [Example 37, Acetic acid 2-(2-acetoxy-4-isopropyl-phenyl)-4-nitro-1,3-dioxo-indan-2-yl ester] |  |  | 62.7 (≈ 147 µM) | 94 to 98 | 
CC(=O)Oc1c(Cl)cc(Cl)cc1C1(OC(C)=O)C(=O)c2ccccc2C1=O [Example 5, 2-(2-Acetoxy-1,3-dioxo-2,3-dihydro-1H-inden-2-yl)-4,6-dichlorophenyl acetate] |  |  | 26 | 178 to 180 | 
CCCc1ccc(OC(C)=O)c(C2(OC(C)=O)C(=O)c3ccccc3C2=O)c1 [Example 11, 2-(2-Acetoxy-1,3-dioxo-2,3-dihydro-1H-inden-2-yl)-4-propylphenyl acetate] |  |  | 8.42 | 108 to 111 | 
CCNC(=O)NC1(c2ccc(C(C)C)cc2OC)C(=O)c2ccccc2C1=O [Example 60, 1-Ethyl-3-(2,3-dihydro-2-(4-isopropyl-2-methoxyphenyl)-1,3-dioxo-1H-inden-2-yl)urea] |  |  | 68.9 (≈ 181 µM) | 267 to 269 | 
CSc1ccccc1C1(O)C(=O)c2ccccc2C1=O [Example 57] |  |  | 48.2 (≈ 170 µM) | 191 to 193 | 

Structure (SMILES) | CC50 (in vitro; Picorna-virus CC50) [µg/mL] | EC50 (Coxsackie-virus B1; [1]) [µg/mL] | CC50 (in vitro; CC50) [µg/mL] | melting point [°C] | EC50 (Coxsackie-virus B1; [2]) [µg/mL]
Cc1cc(C2(O)C(=O)c3ccccc3C2=O)cc(C)c1O [Example 26, 2-Hydroxy-2-(4-hydroxy-3,5-dimethyl-phenyl)-indan-1,3-dione] |  |  | > 100 | 210 to 213 | 
Cc1cc(C2(O)C(=O)c3ccccc3C2=O)c(C)cc1O [Example 35, 2-Hydroxy-2-(4-hydroxy-2,5-dimethylphenyl)-1H-inden-1,3(2H)-dione] |  |  | 59.8 (≈ 212 µM) | 228 to 230 | 
COc1cc(C(C)C)ccc1C1(Br)C(=O)c2cccc(NC(C)=O)c2C1=O (centres unmarked) [Example 65, N-(2-Bromo-2-(4-isopropyl-2-methoxyphenyl)-1,3-dioxo-2,3-dihydro-1H-inden-4-yl)acetamide] |  |  | 11.2 (≈ 25.9 µM) | 143 to 145 | 
COc1cc(C(C)C)ccc1C1(NC(=O)OC(C)C)C(=O)c2ccccc2C1=O [Example 62, Isopropyl 2-(4-isopropyl-2-methoxyphenyl)-1,3-dioxo-2,3-dihydro-1H-inden-2-ylcarbamate] |  |  | 11.3 (≈ 28.5 µM) | 159 to 161 | 
CCC(C)(C)c1ccc(OC(C)=O)c(C2(OC(C)=O)C(=O)c3ccccc3C2=O)c1 [Example 17, 2-(2-Acetoxy-1,3-dioxo-2,3-dihydro-1H-inden-2-yl)-4-tert-pentylphenyl acetate] |  |  | 9.3 | 146 to 151 | 
CC(C)C(=O)NC1(c2ccc(C(C)C)cc2OC(=O)C(C)C)C(=O)c2ccccc2C1=O [Example 50, 2-(2-Isobutylamido-1,3-dioxo-2,3-dihydro-1H-inden-2-yl)-5-isopropylphenyl isobutyrate] |  |  | 44.3 (≈ 102 µM) |  | 0.0112 (≈ 0.0257 µM)
COC1(c2ccc(C(C)C)cc2OCc2ccccc2)C(=O)c2ccccc2C1=O [Example 25, 2-(2-Benzyloxy-4-isopropyl-phenyl)-2-methoxy-indan-1,3-dione] |  |  | > 100 | 140 to 144 | 
CCC(=O)Nc1cc(C)c(C)cc1C1(O)C(=O)c2ccccc2C1=O [Example 87, N-(2-(2-Hydroxy-1,3-dioxo-2,3-dihydro-1H-inden-2-yl)-4,5-dimethylphenyl)propionamide] | 8.31 (≈ 24.6 µM) | 0.019 (≈ 0.0563 µM) |  |  | 
COc1cc(C(C)C)ccc1C1(NC(=O)C2CC2)C(=O)c2ccccc2C1=O [Example 56, N-(2-(4-Isopropyl-2-methoxyphenyl)-1,3-dioxo-2,3-dihydro-1H-inden-2-yl) cyclopropancarboxamide] |  |  | 87.8 (≈ 233 µM) | 145 to 147 | 
COc1cc(C(C)C)ccc1C1(O)C(=O)c2c(N)ccc(N)c2C1=O [Example 46, 4,7-Diamino-2-hydroxy-2-(4-isopropyl-2-methoxyphenyl)-2H-inden-1,3-dione] |  |  | 64 (≈ 188 µM) | 243 to 247 | 
COc1cc(C(C)C)ccc1C1(N=[N+]=[N-])C(=O)c2ccccc2C1=O [Example 52, 2-Azido-2-(4-isopropyl-2-methoxyphenyl)-2H-inden-1,3-dione] |  |  | 27.7 (≈ 82.5 µM) | 175 to 177 | 
CCOC(=O)Cc1cc(OC)c(OC(C)=O)c(C2(OC(C)=O)C(=O)c3ccccc3C2=O)c1 [Example 1, Ethyl 2-(4-acetoxy-3-(2-acetoxy-1,3-dioxo-2,3-dihydro-1H-inden-2-yl)-5-methoxyphenyl)acetate] |  |  | > 100 | 102 to 107 | 
CC(=O)Oc1cc(C)cc(C2(OC(C)=O)C(=O)c3ccccc3C2=O)c1OC(C)=O [Example 18, Acetic acid 2-(2,3-diacetoxy-5-methyl-phenyl)-1,3-dioxo-indan-2-yl ester] |  |  | > 100 | 192 to 194 | 
COc1cc(C(C)C)ccc1C1(O)C(=O)c2c(NC(C)=O)ccc([N+](=O)[O-])c2C1=O (centres unmarked) [Example 42, N-(2-Hydroxy-2-(4-isopropyl-2-methoxyphenyl)-7-nitro-1,3-dioxo-2,3-dihydro-1H-inden-4-yl)acetamide] |  |  | 71.1 (≈ 172 µM) | 110 to 115 | 
CC(=O)Oc1ccc(C(C)(C)C)cc1C1(OC(C)=O)C(=O)c2ccccc2C1=O [Example 14, 2-(2-Acetoxy-1,3-dioxo-2,3-dihydro-1H-inden-2-yl)-4-tert-butylphenyl acetate] |  |  | 8.26 | 195 to 196 | 
COc1cc(C(C)C)ccc1C1(O)C(=O)c2ccc(N)c(N)c2C1=O (centres unmarked) [Example 47, 4,5-Diamino-2-hydroxy-2-(4-isopropyl-2-methoxyphenyl)-2H-inden-1,3-dione] |  |  | 50.9 (≈ 150 µM) | 272 to 274 | 
C=CC(=O)Oc1cc(C(C)C)ccc1C1(OC(=O)C=C)C(=O)c2ccccc2C1=O [Example 32, 2-(2-(Acryloyloxy)-1,3-dioxo-2,3-dihydro-1H-inden-2-yl)-5-isopropylphenyl acrylate] |  |  | 28.7 (≈ 70.9 µM) |  | < 0.01
COc1cc(C(C)C)ccc1C1(N)C(=O)c2cccc(NC(C)=O)c2C1=O (centres unmarked) [Example 66, N-(2-Amino-2-(4-isopropyl-2-methoxyphenyl)-1,3-dioxo-2,3-dihydro-1H-inden-4-yl)acetamide] |  |  | 26.7 (≈ 72.8 µM) | 183 to 185 | 
